ChEMBL document CHEMBL2429756, “Synthesis, docking, and in vitro studies of some substituted bischalcones on acid and alkaline phosphatases” (Med Chem Res, 2013)

What was measured:
[1] = Non-competitive inhibition of goat liver alkaline phosphatase assessed as residual activity using p-nitrophenyl phosphate as substrate by Lineweaver-Burk plot analysis; design: species or system Capra hircus
Capra hircus [2] = organism: Capra hircus; assay: Inhibition of goat liver alkaline phosphatase assessed as residual activity using p-nitrophenyl phosphate as substrate at 1 mM after 30 mins relative to control
Capra hircus [3] = organism: Capra hircus; assay: Inhibition of goat liver acid phosphatase assessed as residual activity using p-nitrophenyl phosphate as substrate at 1 mM after 30 mins relative to control
[4] = Competitive inhibition of goat liver alkaline phosphatase assessed as residual activity using p-nitrophenyl phosphate as substrate by Lineweaver-Burk plot analysis; design: species or system Capra hircus

| SMILES | Ki [1] | Activity (Capra hircus [2]) | Activity (Capra hircus [3]) | Ki [4] |
| --- | --- | --- | --- | --- |
| c1ccc([C@H]2CN3CCSC3=N2)cc1 [LEVAMISOLE] |  | 88% |  | 4000 µM |
| O=C1/C(=C/c2ccc([N+](=O)[O-])cc2)CCC/C1=C\c1ccc([N+](=O)[O-])cc1 |  | 26% | 133% | 250 µM |
| COc1ccc(/C=C2\CCC/C(=C\c3ccc(OC)cc3)C2=O)cc1 |  | 31.7% | 158% | 389 µM |
| CN(C)c1ccc(/C=C2\CCC/C(=C\c3ccc(N(C)C)cc3)C2=O)cc1 |  | 40.2% | 113% | 470 µM |

Next, values leading:

| Ki [1] | Activity (Capra hircus [2]) | Activity (Capra hircus [3]) | Ki [4] | SMILES |
| --- | --- | --- | --- | --- |
| 845 µM | 46% | 149% |  | Cc1ccc(/C=C2\CCC/C(=C\c3ccc(C)cc3)C2=O)cc1 |
|  | 46.2% | 129% | 670 µM | O=C1/C(=C/c2ccc(Cl)cc2)CCC/C1=C\c1ccc(Cl)cc1 |
|  | 43.5% | 127% | 565 µM | O=C1/C(=C/c2ccc(Br)cc2)CCC/C1=C\c1ccc(Br)cc1 |
|  | 57.8% | 140% | 1090 µM | O=C1/C(=C/c2ccc(F)cc2)CCC/C1=C\c1ccc(F)cc1 |
| 441 µM | 30.8% | 129% |  | O=C1/C(=C/C=C/c2ccccc2)CCC/C1=C\C=C\c1ccccc1 |
|  | 41.2% | 121% | 470 µM | O=C1/C(=C/c2ccccc2)CCC/C1=C\c1ccccc1 [2,6-DIBENZYLIDENECYCLOHEXANONE] |
